System: LG0703-F948-PDC complex spheroid viability
Assay: Anticancer human tumor LG0703-F948-PDC patient-derived lung adenocarcinoma cell line growth inhibition [RAS]
Settings: for IC50: curve of first compound; for viability, T/C: stronger effect = lower value
Text: RAS pathway inhibitors in Combinations in Complex Spheroids
A high-throughput screen of multi-cell type tumor spheroids was designed to identify active combinations of RAS pathway inhibitors and targeted small molecules. Complex spheroids include a stromal component modeled by human endothelial cells (HUVEC) and fibroblasts modeled by human mesenchymal stem cells (MSCs). The concentration ranges selected for each drug and investigational agent were based upon clinically achievable concentrations if the clinical Cmax of the agent was known.
Compounds. The drugs and investigational agents: abemaciclib (NSC768073), cobimetinib (NSC768068), divarasib (GDC6063, NSC841802), docetaxel (NSC628503), GDC-1971 (RLY-1971, NSC841576), gemcitabine (NSC613327), inavolisib (NSC800729), ipatasertib (NSC767898), KB-0742 (NSC834161), MRTX-1133 (NSC836407), osimertinib (NSC779217), RMC-4630 (NSC839698), RMC-6236 (NSC851965), RMC-6291 (NSC852671), Ro-3306 (NSC812927), sapanisertib (NSC764658), SN-38 (NSC673596), staurosporine (NSC755774), SY5609 (NSC837396), and tovorafenib (DAY101, NSC766906), were obtained from the National Cancer Institute (NCI) Developmental Therapeutics Program Chemical Repository. The FDA-approved anticancer drug set is available from the NCI Developmental Therapeutics Program. […] The stock solutions were prepared in dimethyl sulfoxide (DMSO, Sigma-Aldrich, St. Louis, MO, cat. D2650) at 800-fold the tested concentration and stored at -70 degrees C prior to their use. All drugs and investigational agents were tested over a range starting from a high concentration at or near the clinical Cmax and decreasing in half-log increments. If the clinical Cmax for an agent had not been determined, the highest concentration tested was 10 microM.
Cell Culture. All cells were maintained in an incubator at 37 degrees C and 5% CO2 with 95% humidity. The PDC lines were cultured according to standard operating procedures established by the NCI PDMR. All PDCs were thawed and cultured in Matrigel-coated flasks prepared with a working solution of 1X Ham's F-12 nutrient mix, without supplementation (Invitrogen, Waltham, MA, cat. 11765054), 100 U/mL penicillin-streptomycin (Invitrogen, cat. 15140122), and 2.5% Matrigel (Corning Inc., Corning, NY, cat. 354248) for the first three passages. The 362531-283-R-J2-PDC and 782815-120-R-J1-PDC lines were cultured in 6C/Colon 1B media, which includes advanced DMEM/F-12 (Thermo Fisher Scientific, cat. 12634028), 10 mM HEPES (Thermo Fisher Scientific, cat. 15630080), 1X GlutaMAX supplement (Thermo Fisher Scientific, cat. 35050061), 0.1 mg/mL primocin (InvivoGen, San Diego, CA, cat. ant-pm-2), 10% defined fetal bovine serum, heat inactivated (HyClone Laboratories Inc., Logan, UT, cat. SH30070.03HI), 50% L-WRN conditioned media (ATCC, cat. CRL-3276), 1.25 mM N-Acetyl-L-cysteine (Sigma-Aldrich, cat. A9165), 10 mM nicotinamide (Sigma-Aldrich, cat. N0636), 1X B-27 supplement (Thermo Fisher Scientific, cat. 17504044), 1X N-2 supplement (Thermo Fisher Scientific, cat. 17502048), 50 ng/mL human EGF (Thermo Fisher Scientific, cat. PHG0311), and 10 microM Y-27632 dihydrochloride (Tocris Bioscience, cat. 1254). The K12877-001-R-J1-PDC line was cultured in 6I media, which includes all 6C/Colon 1B media plus 10 ng/mL human FGF-10 (PeproTech, cat. 100-26), 1 ng/mL human FGF-2 (PeproTech, cat. 100-18B), 1 µM prostaglandin E2 (Tocris Bioscience, cat. 2296), […] hydrocortisone (Sigma-Aldrich, cat. H4001), and […] bovine insulin (Sigma-Aldrich, cat. I6634). The K86415-001-R-J1-PDC line was cultured in 6D media, which includes all 6C/Colon 1B media components minus the L-WRN conditioned media. The 485176-168-R4-J1-PDC was cultured in PANC media, which includes all 6C/Colon 1B media plus 100 ng/mL human FGF-10 (PeproTech, cat. 100-26), 500 nM SB-431542 (Selleckchem, cat. S1067), and 10 nM gastrin (Tocris Bioscience, cat. 3006). […]
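Further: spheroids exposed to agents for 7 days.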
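Wherever viability, T/C is given: 100% = DMSO vehicle wells.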

Structure (SMILES): CC1(O)CCCC1n1c(=O)c(C(F)F)cc2cnc(NC3CCN(S(C)(=O)=O)CC3)nc21 (configuration not stated) + C#Cc1c(F)ccc2cc(O)cc(-c3ncc4c(N5CC6CCC(C5)N6)nc(OCC56CCCN5CC(F)C6)nc4c3F)c12
- IC50 (second compound 0.0316 µM): 6.15 µM
- IC50 (second compound 0.1 µM): 7.25 µM
- IC50 (second compound 0.316 µM): 5.04 µM
- IC50 (second compound 1 µM): 5.73 µM
- IC50 (second compound 3.16 µM): 4.26 µM
- IC50 (second compound 10 µM): 3.94 µM
- viability, T/C (second compound 0.0316 µM, first compound 0.0316 µM): 109%
- viability, T/C (second compound 0.0316 µM, first compound 0.1 µM): 92.2%
- viability, T/C (second compound 0.0316 µM, first compound 0.316 µM): 97.8%
- viability, T/C (second compound 0.0316 µM, first compound 1 µM): 87%
- viability, T/C (second compound 0.0316 µM, first compound 3.16 µM): 77.1%
- viability, T/C (second compound 0.0316 µM, first compound 10 µM): 31.6%
- viability, T/C (second compound 0.1 µM, first compound 0.0316 µM): 131%
- viability, T/C (second compound 0.1 µM, first compound 0.1 µM): 109%
- viability, T/C (second compound 0.1 µM, first compound 0.316 µM): 82.4%
- viability, T/C (second compound 0.1 µM, first compound 1 µM): 76.3%
- viability, T/C (second compound 0.1 µM, first compound 3.16 µM): 87.7%
- viability, T/C (second compound 0.1 µM, first compound 10 µM): 29.5%
- viability, T/C (second compound 0.316 µM, first compound 0.0316 µM): 83.9%
- viability, T/C (second compound 0.316 µM, first compound 0.1 µM): 72.4%
- viability, T/C (second compound 0.316 µM, first compound 0.316 µM): 74.5%
- viability, T/C (second compound 0.316 µM, first compound 1 µM): 65.9%
- viability, T/C (second compound 0.316 µM, first compound 3.16 µM): 69.4%
- viability, T/C (second compound 0.316 µM, first compound 10 µM): 23.9%
- viability, T/C (second compound 1 µM, first compound 0.0316 µM): 78.3%
- viability, T/C (second compound 1 µM, first compound 0.1 µM): 82.7%
- viability, T/C (second compound 1 µM, first compound 0.316 µM): 88.3%
- viability, T/C (second compound 1 µM, first compound 1 µM): 67.1%
- viability, T/C (second compound 1 µM, first compound 3.16 µM): 86.7%
- viability, T/C (second compound 1 µM, first compound 10 µM): 21.3%
- viability, T/C (second compound 3.16 µM, first compound 0.0316 µM): 71.5%
- viability, T/C (second compound 3.16 µM, first compound 0.1 µM): 62%
- viability, T/C (second compound 3.16 µM, first compound 0.316 µM): 69.1%
- viability, T/C (second compound 3.16 µM, first compound 1 µM): 61.6%
- viability, T/C (second compound 3.16 µM, first compound 3.16 µM): 63%
- viability, T/C (second compound 3.16 µM, first compound 10 µM): 13.6%
- viability, T/C (second compound 10 µM, first compound 0.0316 µM): 50%
- viability, T/C (second compound 10 µM, first compound 0.1 µM): 71.3%
- viability, T/C (second compound 10 µM, first compound 0.316 µM): 55.2%
- viability, T/C (second compound 10 µM, first compound 1 µM): 62.9%
- viability, T/C (second compound 10 µM, first compound 3.16 µM): 65.1%
- viability, T/C (second compound 10 µM, first compound 10 µM): 4.24%

— PubChem BioAssay AID2060890 (Molecular Pharmacology Branch, DTP, NCI, 2025)
